16 compounds from ChEMBL document CHEMBL3580638, “Targeting HER-2 over expressed breast cancer cells with 2-cyclohexyl-N-[(Z)-(substituted phenyl/furan-2-yl/thiophene-2-yl)methylidene]hydrazinecarbothioamide” (Bioorg Med Chem Lett, 2014) can be followed below.

The subject of experiment [1] is MCF7. Briefly: Cytotoxicity against human MCF7 cells assessed as cell growth inhibition after 48 hrs by WST-1 assay. The class given is functional, cell-based. As to conditions: MCF7, 48 h.
Experiment [2] has as its system MDA-MB-231. Briefly: Cytotoxicity against human MDA-MB-231 cells assessed as cell growth inhibition after 48 hrs by WST-1 assay. The experiment is classed as functional, cell-based. As to conditions: MDA-MB-231, 48 h. On the technique in general: Tetrazolium assays rely on reduction of a dye to a coloured formazan, in cell work by metabolically active cells.
Experiment [3] concerns MDA-MB-468. Put plainly: Cytotoxicity against human MDA-MB-468 cells assessed as cell growth inhibition after 48 hrs by WST-1 assay. The class given is functional, cell-based. Particulars: MDA-MB-468, 48 h.
A short description of experiment [4]: Cytotoxicity against human SKBR3 cells overexpressing HER2 assessed as cell growth inhibition after 48 hrs by WST-1 assay. As to conditions: SK-BR-3, 48 h. The experiment is classed as functional, cell-based.
A short description of experiment [5]: Decrease in HER2 expression in human SKBR3 cells overexpressing HER2 by immunohistochemistry staining. The class given is functional, cell-based. As to conditions: SK-BR-3.
In experiment [6] the test system is MCF7. Put plainly: Inhibition of cell adhesion in human MCF7 cells at 25 uM after 30 to 90 mins by microtiter plate reader analysis. The experiment is classed as functional.
Experiment [7] deals with SK-BR-3. Briefly: Inhibition of cell adhesion in human SKBR3 cells overexpressing HER2 at 25 uM after 30 to 90 mins by microtiter plate reader analysis. The experiment is classed as functional.
Experiment [8] relates to MDA-MB-231. Put plainly: Inhibition of cell adhesion in human MDA-MB-231 cells at 25 uM after 30 to 90 mins by microtiter plate reader analysis. The experiment is classed as functional.
The test system of experiment [9] is MCF7. Put plainly: Inhibition of cell migration in human MCF7 cells at 25 uM after 8 hrs by microtiter plate reader analysis. The class given is functional. As to conditions: MCF7, 8 h.
Experiment [10] has as its system MDA-MB-231. Put plainly: Inhibition of cell migration in human MDA-MB-231 cells at 25 uM after 8 hrs by microtiter plate reader analysis. The class given is functional. Particulars: MDA-MB-231, 8 h.
The test system of experiment [11] is SK-BR-3. Put plainly: Decrease in ALDH activity in human SKBR3 cells overexpressing HER2 assessed as reduction in ALDH-positive population at 30 uM after 72 hrs by Aldefluor assay. The class given is functional.
The subject of experiment [12] is SK-BR-3. Put plainly: Decrease in ALDH activity in human SKBR3 cells overexpressing HER2 assessed as ALDH-positive population by flow cytometry in absence of ALDH inhibitor DEAB (reference value: 20%). The class given is functional. Further details: scale not given: the % may be the effect or the level left. In general terms: Flow cytometry measures light scatter and fluorescence of single cells or particles in a stream.

For experiment [13], the system named is SK-BR-3. Briefly: Decrease in ALDH activity in human SKBR3 cells overexpressing HER2 assessed as ALDH-positive population by flow cytometry in presence of ALDH inhibitor DEAB (reference value: 0.7%). On the set-up: scale not given: the % may be the effect or the level left. The experiment is classed as functional.
Experiment [14] relates to SK-BR-3. Put plainly: Inhibition of cell migration in human SKBR3 cells overexpressing HER2 at 25 uM after 8 hrs by microtiter plate reader analysis. As to conditions: SK-BR-3, 8 h. The class given is functional.
The test system of experiment [15] is MDA-MB-468. Briefly: Cytotoxicity against human MDA-MB-468 cells assessed as cell growth inhibition at 300 uM after 48 hrs by WST-1 assay. The experiment is classed as functional, cell-based.
In experiment [16] the test system is MDA-MB-231. Briefly: Cytotoxicity against human MDA-MB-231 cells assessed as cell growth inhibition at 300 uM after 48 hrs by WST-1 assay. The experiment is classed as functional, cell-based.
The subject of experiment [17] is MCF7. Put plainly: Cytotoxicity against human MCF7 cells assessed as cell growth inhibition at 300 uM after 48 hrs by WST-1 assay. The class given is functional, cell-based.

The source made the active and inactive calls. No cut-off for these calls is given here.

One may read the IC50 as the point on the concentration scale where inhibition reaches its midpoint. As for `Oc1ccc(/C=N\NC(=S)NC2CCCCC2)c(O)c1`, the IC50 in the experiment on MCF7 [1] amounted to 105 µM; in the experiment on MDA-MB-231 [2] it was 56.6 µM; with MDA-MB-468 [3], 44.6 µM; in experiment [4] it was 27.7 µM.

A word on the inhibition: it is the percentage by which the read-out fell short of the control. Regarding `COc1cccc(/C=N\NC(=S)NC2CCCCC2)c1`, the inhibition result in experiment [5] was “Active”. The IC50 in the experiment with MCF7 [1] turned out to be 49.9 µM; in the experiment on MDA-MB-231 [2], 88.9 µM; in the experiment on MDA-MB-468 [3], 46.7 µM; in [4], 30.9 µM. Also, the inhibition at 25 µM with MCF7 [6] stood at 15.9%; in the experiment with SK-BR-3 [7], 45.6%; in the experiment with MDA-MB-231 [8], 32.3%; in the experiment on MCF7 [9] it was 32.4%; with MDA-MB-231 [10], 31.4%; with SK-BR-3 [14] it was 46.7%. In the experiment on SK-BR-3 [11] (SK-BR-3, 72 h), the inhibition at 30 µM amounted to 50%. The values for the Activity in the experiment with SK-BR-3 [12] and in the experiment on SK-BR-3 [13] were 9.5% and 0.7%, respectively.

For `S=C(N/N=C\c1cccs1)NC1CCCCC1`, the inhibition entry (in experiment [5]; in the experiment with SK-BR-3 [11]) was “Active” in each case. Further, the IC50 in the experiment on MCF7 [1] was 49.8 µM; in the experiment with MDA-MB-231 [2], 58.6 µM; with MDA-MB-468 [3] it was 337 µM; in [4], 30.4 µM.

Regarding `CCOc1ccc(/C=N\NC(=S)NC2CCCCC2)cc1`, the inhibition result (in experiment [5]; in the experiment with SK-BR-3 [11]) was “Active” each time. Moreover, the IC50 in the experiment with MCF7 [1] came out at 166 µM; in the experiment on MDA-MB-231 [2], 68.2 µM; with MDA-MB-468 [3], 252 µM; in experiment [4], 29.9 µM. Moreover, the Activity in the experiment on SK-BR-3 [12] was 11.1%; with SK-BR-3 [13], 0.7%.

`S=C(N/N=C\c1ccc2c(c1)OCO2)NC1CCCCC1`: the inhibition entry in the experiment on MDA-MB-468 [15], in the experiment on MDA-MB-231 [16] and in the experiment on MCF7 [17] was “inactive” throughout. Besides, in experiment [4], the IC50 was 61.6 µM.

Regarding `O=[N+]([O-])c1ccccc1/C=N\NC(=S)NC1CCCCC1`, the inhibition entry in the experiment on MDA-MB-468 [15] and with MCF7 [17] was “inactive” each time. The IC50 with MDA-MB-231 [2] was determined as 118 µM; in experiment [4], 46.5 µM.

With `CN(C)c1ccc(/C=N\NC(=S)NC2CCCCC2)cc1`, the 50% inhibitory concentration (IC50) in the experiment with MCF7 [1] amounted to 51.1 µM; in the experiment with MDA-MB-231 [2], 125 µM; with MDA-MB-468 [3], 280 µM; in [4], 31.2 µM.

For `COc1ccc(/C=N\NC(=S)NC2CCCCC2)cc1OC`, the inhibition entry in the experiment on MDA-MB-468 [15] and in the experiment with MDA-MB-231 [16] was “inactive” throughout. The IC50 in the experiment with MCF7 [1] was 99.2 µM; in [4], 47.9 µM.

Take `Oc1cccc(/C=N\NC(=S)NC2CCCCC2)c1`: the inhibition result (in experiment [5]; with SK-BR-3 [11]) was “Active” in each case. Further, the IC50 came to 24.5 µM in the experiment on MDA-MB-231 [2], 32.2 µM in the experiment with MDA-MB-468 [3] and 25.6 µM in experiment [4]. In the experiment with MCF7 [17], the inhibition result was “inactive”.

Consider `S=C(N/N=C\c1ccco1)NC1CCCCC1`, for which the inhibition entry in the experiment on MDA-MB-468 [15] and in the experiment with MCF7 [17] was “inactive” each time. Further, the concentration for half-maximal inhibition (IC50) is 141 µM with MDA-MB-231 [2] and 45.7 µM in experiment [4].

For `O=[N+]([O-])c1ccc(/C=N\NC(=S)NC2CCCCC2)cc1`, the inhibition result with MDA-MB-468 [15], in the experiment on MDA-MB-231 [16] and in the experiment on MCF7 [17] was “inactive” in each case. For the same compound, the IC50 in experiment [4] was 41 µM.

For the compound `O=c1[nH]cc(F)c(=O)[nH]1` [FLUOROURACIL], the IC50 in the experiment with MCF7 [1] amounted to 34.5 µM; in the experiment with MDA-MB-231 [2] it was 77.3 µM; in experiment [4], 38.9 µM.

Take `Oc1ccc(/C=N\NC(=S)NC2CCCCC2)cc1`: the inhibition result (in experiment [5]; in the experiment on SK-BR-3 [11]) was “Active” throughout. In addition, the half-maximal inhibitory concentration (IC50) with MCF7 [1] amounted to 50.4 µM; in the experiment on MDA-MB-231 [2] it was 115 µM; in the experiment on MDA-MB-468 [3] it was 242 µM; in experiment [4], 29.9 µM.

In the case of `O=[N+]([O-])c1cccc(/C=N\NC(=S)NC2CCCCC2)c1`, the inhibition entry with MDA-MB-468 [15] and in the experiment on MCF7 [17] was “inactive” in each case. The IC50 in the experiment with MDA-MB-231 [2] worked out at 84.8 µM; in experiment [4] it was 34.6 µM.

Regarding `S=C(N/N=C\c1ccc(Cl)cc1)NC1CCCCC1`, the IC50 in the experiment on MCF7 [1] is 91.4 µM; with MDA-MB-231 [2], 38.3 µM; in the experiment on MDA-MB-468 [3], 41.6 µM; in experiment [4], 32.2 µM.

As to `CC[C@@H](C(=O)[C@@H](C)[C@@H](O)[C@H](C)[C@@H]1O[C@@H]([C@@H](CC)C(=O)O)CC[C@@H]1C)[C@H]1O[C@]2(C=C[C@@H](O)[C@]3(CC[C@@](C)([C@H]4CC[C@](O)(CC)[C@H](C)O4)O3)O2)[C@H](C)C[C@@H]1C` [SALINOMYCIN], the Activity came out at 30% with SK-BR-3 [12] and 0.6% with SK-BR-3 [13].
